The NIST ThermoML archive (doi:10.1021/acs.jced.8b00132)
“And” between values parts separate entries of the source, which are not always exact repeats. Equal entries are not always repeated.

Conditions: Gas

O=C(C(F)(F)C(F)(F)F)C(F)(C(F)(F)F)C(F)(F)F [dodecafluoro-2-methylpentan-3-one]
Conditions	thermal conductivity
454.15 K, 782 kPa, transient hot wire	0.02353 W/m/K
454.15 K, 47000 kPa, transient hot wire	0.06263 W/m/K
454.17 K, 779 kPa, transient hot wire	0.02342 W/m/K
454.18 K, 46933 kPa, transient hot wire	0.06269 W/m/K and 0.06261 W/m/K
454.2 K, 169 kPa, hot wire	0.0226 W/m/K
454.2 K, 1365 kPa, transient hot wire	0.0246 W/m/K
454.21 K, 169 kPa, hot wire	0.02248 W/m/K
454.21 K, 1366 kPa, transient hot wire	0.02448 W/m/K
454.22 K, 47 kPa, hot wire	0.0225 W/m/K and 0.02246 W/m/K
454.23 K, 526 kPa, transient hot wire	0.02368 W/m/K
454.26 K, 526 kPa, transient hot wire	0.02374 W/m/K
454.32 K, 351 kPa, transient hot wire	0.02402 W/m/K
454.32 K, 354 kPa, transient hot wire	0.02406 W/m/K
454.33 K, 781 kPa, transient hot wire	0.02352 W/m/K
454.36 K, 1365 kPa, transient hot wire	0.02461 W/m/K
454.38 K, 1365 kPa, transient hot wire	0.02468 W/m/K
454.41 K, 524 kPa, transient hot wire	0.02367 W/m/K
454.41 K, 526 kPa, transient hot wire	0.02369 W/m/K
454.49 K, 780 kPa, transient hot wire	0.02364 W/m/K
454.5 K, 345 kPa, transient hot wire	0.02401 W/m/K
454.5 K, 348 kPa, transient hot wire	0.02403 W/m/K
454.5 K, 779 kPa, transient hot wire	0.02369 W/m/K
454.54 K, 1365 kPa, transient hot wire	0.02476 W/m/K
454.58 K, 524 kPa, transient hot wire	0.02372 W/m/K
454.6 K, 523 kPa, transient hot wire	0.02364 W/m/K
454.67 K, 776 kPa, transient hot wire	0.0236 W/m/K
454.68 K, 341 kPa, transient hot wire	0.02404 W/m/K
454.68 K, 343 kPa, transient hot wire	0.02408 W/m/K
454.68 K, 778 kPa, transient hot wire	0.02361 W/m/K
454.78 K, 524 kPa, transient hot wire	0.02371 W/m/K
454.79 K, 524 kPa, transient hot wire	0.02372 W/m/K
454.86 K, 776 kPa, transient hot wire	0.02365 W/m/K
454.87 K, 339 kPa, transient hot wire	0.02408 W/m/K
454.87 K, 774 kPa, transient hot wire	0.02365 W/m/K
454.88 K, 340 kPa, transient hot wire	0.02406 W/m/K
454.98 K, 523 kPa, transient hot wire	0.02378 W/m/K and 0.02375 W/m/K
455.07 K, 337 kPa, transient hot wire	0.02422 W/m/K
455.08 K, 338 kPa, transient hot wire	0.02415 W/m/K
472.48 K, 3077 kPa, transient hot wire	0.03434 W/m/K
472.49 K, 3077 kPa, transient hot wire	0.03339 W/m/K
472.51 K, 2894 kPa, transient hot wire	0.03274 W/m/K
472.53 K, 2894 kPa, transient hot wire	0.034 W/m/K
472.53 K, 3077 kPa, transient hot wire	0.034 W/m/K
472.55 K, 3077 kPa, transient hot wire	0.03381 W/m/K
472.57 K, 2711 kPa, transient hot wire	0.03198 W/m/K
472.58 K, 2894 kPa, transient hot wire	0.03316 W/m/K
472.59 K, 2711 kPa, transient hot wire	0.03186 W/m/K
472.59 K, 2894 kPa, transient hot wire	0.03275 W/m/K
472.59 K, 3077 kPa, transient hot wire	0.03373 W/m/K
472.6 K, 3077 kPa, transient hot wire	0.03356 W/m/K
472.62 K, 3291 kPa, transient hot wire	0.03462 W/m/K
472.63 K, 2711 kPa, transient hot wire	0.03247 W/m/K
472.64 K, 2711 kPa, transient hot wire	0.03224 W/m/K
472.64 K, 2894 kPa, transient hot wire	0.03315 W/m/K and 0.03273 W/m/K
472.65 K, 3077 kPa, transient hot wire	0.03407 W/m/K and 0.03386 W/m/K
472.67 K, 2504 kPa, transient hot wire	0.03029 W/m/K
472.67 K, 3291 kPa, transient hot wire	0.03475 W/m/K and 0.03505 W/m/K
472.68 K, 2504 kPa, transient hot wire	0.02998 W/m/K
472.68 K, 2894 kPa, transient hot wire	0.03347 W/m/K
472.7 K, 2711 kPa, transient hot wire	0.0322 W/m/K
472.7 K, 2712 kPa, transient hot wire	0.03222 W/m/K
472.7 K, 3078 kPa, transient hot wire	0.03422 W/m/K and 0.0347 W/m/K
472.7 K, 4062 kPa, transient hot wire	0.03638 W/m/K
472.71 K, 2894 kPa, transient hot wire	0.03401 W/m/K
472.71 K, 4063 kPa, transient hot wire	0.03625 W/m/K
472.73 K, 3291 kPa, transient hot wire	0.03502 W/m/K and 0.03525 W/m/K
472.73 K, 3605 kPa, transient hot wire	0.036 W/m/K
472.74 K, 3604 kPa, transient hot wire	0.03572 W/m/K
472.75 K, 2505 kPa, transient hot wire	0.03037 W/m/K
472.75 K, 2894 kPa, transient hot wire	0.0336 W/m/K
472.75 K, 4063 kPa, transient hot wire	0.03659 W/m/K
472.76 K, 2711 kPa, transient hot wire	0.03263 W/m/K
472.77 K, 2712 kPa, transient hot wire	0.03232 W/m/K
472.77 K, 2894 kPa, transient hot wire	0.03342 W/m/K
472.77 K, 4063 kPa, transient hot wire	0.0364 W/m/K
472.78 K, 3291 kPa, transient hot wire	0.03545 W/m/K
472.78 K, 3605 kPa, transient hot wire	0.03545 W/m/K
472.8 K, 4819 kPa, transient hot wire	0.03773 W/m/K
472.81 K, 2264 kPa, transient hot wire	0.02846 W/m/K
472.81 K, 2265 kPa, transient hot wire	0.02848 W/m/K
472.81 K, 4062 kPa, transient hot wire	0.03638 W/m/K
472.81 K, 4820 kPa, transient hot wire	0.03801 W/m/K
472.82 K, 2505 kPa, transient hot wire	0.03067 W/m/K and 0.03052 W/m/K
472.83 K, 2712 kPa, transient hot wire	0.03316 W/m/K
472.83 K, 3291 kPa, transient hot wire	0.03561 W/m/K
472.83 K, 4063 kPa, transient hot wire	0.03659 W/m/K
472.84 K, 2711 kPa, transient hot wire	0.03262 W/m/K
472.85 K, 3605 kPa, transient hot wire	0.03577 W/m/K
472.86 K, 3292 kPa, transient hot wire	0.03541 W/m/K
472.86 K, 3605 kPa, transient hot wire	0.0358 W/m/K
472.87 K, 2265 kPa, transient hot wire	0.02848 W/m/K
472.87 K, 4820 kPa, transient hot wire	0.03777 W/m/K
472.88 K, 4820 kPa, transient hot wire	0.03795 W/m/K
472.91 K, 4063 kPa, transient hot wire	0.03666 W/m/K
472.92 K, 4063 kPa, transient hot wire	0.03656 W/m/K
472.93 K, 3605 kPa, transient hot wire	0.03577 W/m/K
472.94 K, 4821 kPa, transient hot wire	0.03795 W/m/K
472.95 K, 4821 kPa, transient hot wire	0.03782 W/m/K
472.96 K, 2265 kPa, transient hot wire	0.02876 W/m/K
472.96 K, 4064 kPa, transient hot wire	0.03659 W/m/K
472.97 K, 2265 kPa, transient hot wire	0.02862 W/m/K
472.98 K, 4064 kPa, transient hot wire	0.0367 W/m/K
472.99 K, 3605 kPa, transient hot wire	0.03603 W/m/K
472.99 K, 3606 kPa, transient hot wire	0.0358 W/m/K
472.99 K, 5939 kPa, transient hot wire	0.03924 W/m/K
473.01 K, 4823 kPa, transient hot wire	0.03784 W/m/K
473.03 K, 4823 kPa, transient hot wire	0.038 W/m/K
473.06 K, 1890 kPa, transient hot wire	0.02666 W/m/K
473.06 K, 2265 kPa, transient hot wire	0.02868 W/m/K
473.06 K, 5939 kPa, transient hot wire	0.03956 W/m/K
473.07 K, 605 kPa, hot wire	0.02596 W/m/K
473.08 K, 606 kPa, hot wire	0.02604 W/m/K
473.08 K, 1889 kPa, transient hot wire	0.02628 W/m/K
473.08 K, 2265 kPa, transient hot wire	0.02867 W/m/K
473.08 K, 5937 kPa, transient hot wire	0.03959 W/m/K
473.1 K, 4824 kPa, transient hot wire	0.03789 W/m/K and 0.03779 W/m/K
473.11 K, 430 kPa, hot wire	0.0254 W/m/K
473.13 K, 429 kPa, hot wire	0.02498 W/m/K
473.14 K, 204 kPa, hot wire	0.0245 W/m/K and 0.02427 W/m/K
473.14 K, 5937 kPa, transient hot wire	0.03959 W/m/K and 0.03958 W/m/K
473.15 K, 1888 kPa, transient hot wire	0.0266 W/m/K
473.16 K, 2265 kPa, transient hot wire	0.02905 W/m/K
473.17 K, 607 kPa, hot wire	0.02579 W/m/K
473.17 K, 2265 kPa, transient hot wire	0.0291 W/m/K
473.18 K, 607 kPa, hot wire	0.02602 W/m/K
473.19 K, 7819 kPa, transient hot wire	0.04147 W/m/K
473.19 K, 49267 kPa, transient hot wire	0.06278 W/m/K
473.21 K, 47 kPa, hot wire	0.02404 W/m/K
473.21 K, 427 kPa, hot wire	0.02512 W/m/K
473.21 K, 49264 kPa, transient hot wire	0.06294 W/m/K
473.22 K, 426 kPa, hot wire	0.02501 W/m/K
473.22 K, 5937 kPa, transient hot wire	0.03959 W/m/K
473.23 K, 47 kPa, hot wire	0.02385 W/m/K
473.24 K, 203 kPa, hot wire	0.02435 W/m/K and 0.02438 W/m/K
473.24 K, 5937 kPa, transient hot wire	0.03993 W/m/K
473.26 K, 49261 kPa, transient hot wire	0.06261 W/m/K
473.26 K, 49266 kPa, transient hot wire	0.06275 W/m/K
473.27 K, 607 kPa, hot wire	0.02598 W/m/K and 0.02584 W/m/K
473.27 K, 1888 kPa, transient hot wire	0.02674 W/m/K
473.27 K, 49222 kPa, transient hot wire	0.06278 W/m/K
473.27 K, 49223 kPa, transient hot wire	0.06286 W/m/K
473.28 K, 47 kPa, hot wire	0.02405 W/m/K
473.28 K, 1888 kPa, transient hot wire	0.02686 W/m/K
473.28 K, 7819 kPa, transient hot wire	0.0414 W/m/K
473.29 K, 423 kPa, hot wire	0.02534 W/m/K
473.29 K, 5935 kPa, transient hot wire	0.03933 W/m/K
473.29 K, 7822 kPa, transient hot wire	0.04164 W/m/K
473.3 K, 47 kPa, hot wire	0.02401 W/m/K
473.3 K, 425 kPa, hot wire	0.02526 W/m/K
473.31 K, 5936 kPa, transient hot wire	0.03955 W/m/K
473.33 K, 202 kPa, hot wire	0.02458 W/m/K
473.33 K, 7818 kPa, transient hot wire	0.04161 W/m/K
473.33 K, 33947 kPa, transient hot wire	0.05683 W/m/K
473.33 K, 49216 kPa, transient hot wire	0.06307 W/m/K
473.34 K, 203 kPa, hot wire	0.02431 W/m/K
473.34 K, 33948 kPa, transient hot wire	0.05717 W/m/K
473.35 K, 47 kPa, hot wire	0.02449 W/m/K
473.35 K, 49221 kPa, transient hot wire	0.06272 W/m/K
473.36 K, 47 kPa, hot wire	0.02437 W/m/K
473.36 K, 606 kPa, hot wire	0.02606 W/m/K
473.36 K, 7821 kPa, transient hot wire	0.04152 W/m/K
473.37 K, 607 kPa, hot wire	0.0258 W/m/K
473.38 K, 420 kPa, hot wire	0.02536 W/m/K
473.38 K, 1887 kPa, transient hot wire	0.02681 W/m/K
473.38 K, 1913 kPa, transient hot wire	0.02688 W/m/K
473.38 K, 49255 kPa, transient hot wire	0.06283 W/m/K
473.39 K, 419 kPa, hot wire	0.0252 W/m/K
473.39 K, 1474 kPa, transient hot wire	0.02551 W/m/K
